# Measurements published in patent publication US9802960B2 (MILLENNIUM PHARMACEUTICALS, INC., priority 2014, dated 2017).
# Biological target: Human VPS34 (Homo sapiens (Human), UniProt Q8NEB9)
# Assay: Human VPS34 enzyme assay (Adapta TR-FRET)
# Type: biochemical
# Conditions: IC50 range class
# Human VPS34, sequence (Q8NEB9 whole entry): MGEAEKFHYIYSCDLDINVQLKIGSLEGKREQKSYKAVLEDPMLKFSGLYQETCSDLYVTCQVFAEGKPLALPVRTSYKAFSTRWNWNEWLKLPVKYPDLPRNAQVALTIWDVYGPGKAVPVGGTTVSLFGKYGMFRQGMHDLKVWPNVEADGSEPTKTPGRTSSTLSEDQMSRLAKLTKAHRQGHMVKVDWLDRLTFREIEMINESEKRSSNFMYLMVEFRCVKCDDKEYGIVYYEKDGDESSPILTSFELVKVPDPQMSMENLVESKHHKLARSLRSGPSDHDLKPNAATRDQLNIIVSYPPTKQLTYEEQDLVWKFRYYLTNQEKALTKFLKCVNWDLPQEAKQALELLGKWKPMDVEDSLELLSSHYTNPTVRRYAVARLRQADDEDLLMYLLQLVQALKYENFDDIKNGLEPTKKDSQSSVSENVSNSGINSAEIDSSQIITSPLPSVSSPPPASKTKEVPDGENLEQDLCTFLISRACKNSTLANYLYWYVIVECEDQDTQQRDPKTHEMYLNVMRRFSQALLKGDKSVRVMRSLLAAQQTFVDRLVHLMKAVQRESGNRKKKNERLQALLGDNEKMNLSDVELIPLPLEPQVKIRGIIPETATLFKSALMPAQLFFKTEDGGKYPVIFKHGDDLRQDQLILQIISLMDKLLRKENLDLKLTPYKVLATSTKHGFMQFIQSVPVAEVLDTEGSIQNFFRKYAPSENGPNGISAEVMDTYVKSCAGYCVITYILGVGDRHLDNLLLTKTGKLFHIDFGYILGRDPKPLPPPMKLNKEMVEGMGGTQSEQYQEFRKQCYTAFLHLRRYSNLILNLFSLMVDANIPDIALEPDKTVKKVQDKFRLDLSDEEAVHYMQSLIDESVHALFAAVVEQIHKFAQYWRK
row,Compound,IC50
1,"CC(=O)Nc1cc(-c2cnc(C)c(NS(=O)(=O)c3nccn3C)c2)ccn1 [Compound I-92, N-(6-methyl-5-{[(1-methyl-1H-imidazol-2-yl)sulfonyl]amino}-3,4′-bipyridin-2′-yl)acetamide]",10 to 50 nM

# Same assay, conditions: compound concentration 1.11 μM
row,Compound,Percent Inhibition
1,"CC(=O)Nc1cc(-c2cnc(Cl)c(S(=O)(=O)N[C@H](CO)c3ccccc3)c2)ccn1 [Compound I-330, N-(6-chloro-5-{[(1S)-2-hydroxy-1-phenylethyl]sulfamoyl}-3,4′-bipyridin-2′-yl)acetamide]",>99%

# Same assay, conditions: compound concentration 1.11 μM; read-out: Percent Inhibition
row,Compound,inhibition at 1.11 µM
1,"COc1ncc(-c2ccnc(NC(C)=O)c2)cc1S(=O)(=O)NC1CCC1 [Compound I-426, N-[5-(cyclobutylsulfamoyl)-6-methoxy-3,4′-bipyridin-2′-yl]acetamide]",> 99%
2,"CC(=O)Nc1cc(-c2cnc(N(C)C)c(C(=O)NC34CC(C3)C4)c2)ccn1 [Compound I-283, 2′-Acetamido-N-(bicyclo[1.1.1]pent-1-yl)-6-(dimethylamino)-3,4′-bipyridine-5-carboxamide]",> 99%
3,CC(=O)Nc1cc(-c2cnc(N)c(S(=O)(=O)N(C)Cc3ccccc3)c2)ccn1 [Compound I-76],> 99%
4,"Cc1nccc(Nc2cc(-c3cnc(C)c(N4CCCN(C)S4(=O)=O)c3)ccn2)n1 [Compound I-288, 6-methyl-5-(6-methyl-1,1-dioxido-1,2,6-thiadiazinan-2-yl)-N-(2-methylpyrimidin-4-yl)-3,4′-bipyridin-2′-amine]",91%
5,"Cc1nccc(Nc2cc(-c3cnc(C)c(Oc4ccccc4)c3)ccn2)n1 [Compound I-475, 6-methyl-N-(2-methylpyrimidin-4-yl)-5-phenoxy-3,4′-bipyridin-2′-amine]",> 99%
6,"CNc1ncc(-c2ccnc(NC(C)=O)c2)cc1S(=O)(=O)N(C(C)C)C(C)C [Compound I-173, N-[5-(diisopropylsulfamoyl)-6-(methylamino)-3,4′-bipyridin-2′-yl]acetamide]",> 99%
7,"Cc1nccc(Nc2cc(-c3cnc(C)c(C(=O)N(C)C45CC(C4)C5)c3)ccn2)n1 [Compound I-275, N-(bicyclo[1.1.1]pent-1-yl)-N,6-dimethyl-2′-[(2-methylpyrimidin-4-yl)amino]-3,4′-bipyridine-5-carboxamide]",> 99%
8,"CNc1ncc(-c2ccnc(Nc3ccncn3)c2)cc1C(=O)N(C)C12CC(C1)C2 [Compound I-222, N-(bicyclo[1.1.1]pent-1-yl)-N-methyl-6-(methylamino)-2′-(pyrimidin-4-ylamino)-3,4′-bipyridine-5-carboxamide]",93%
9,"COc1ccc(S(=O)(=O)Nc2cc(-c3ccnc(NC(C)=O)c3)cnc2C)cc1 [Compound I-165, N-(5-{[(4-methoxyphenyl)sulfonyl]amino}-6-methyl-3,4′-bipyridin-2′-yl)acetamide]",> 99%
10,"COc1ncc(-c2ccnc(NC(C)=O)c2)cc1NS(=O)(=O)N(C)C [Compound I-220, N-{5-[(dimethylsulfamoyl)amino]-6-methoxy-3,4′-bipyridin-2′-yl}acetamide]",99%
11,"CC(=O)Nc1cc(-c2cnc(N)c(S(=O)(=O)Cc3ccccc3)c2)ccn1 [Compound I-6, N-[6-amino-5-(benzylsulfonyl)-3,4′-bipyridin-2′-yl]acetamide]",> 99%
12,"CCOC(=O)Nc1cc(-c2cnc(C)c(NS(=O)(=O)N(C)C)c2)ccn1 [Compound I-364, ethyl {5-[(dimethylsulfamoyl)amino]-6-methyl-3,4′-bipyridin-2′-yl}carbamate]",> 99%
13,"CC(=O)Nc1cc(-c2cnc3c(c2)S(=O)(=O)N(C)CN3)ccn1 [Compound I-21, N-[4-(2-methyl-1,1-dioxido-3,4-dihydro-2H-pyrido[2,3-e][1,2,4]thiadiazin-7-yl)pyridin-2-yl]acetamide]",> 99%
14,"COc1ccccc1S(=O)(=O)Nc1cc(-c2ccnc(NC(C)=O)c2)cnc1C [Compound I-74, N-(5-{[(2-methoxyphenyl)sulfonyl]amino}-6-methyl-3,4′-bipyridin-2′-yl)acetamide]",> 99%
15,"CC(=O)Nc1cc(-c2cnc(N)c(S(=O)(=O)N(C(C)C)C(C)C)c2)ccn1 [Compound I-77, N-[6-amino-5-(diisopropylsulfamoyl)-3,4′-bipyridin-2′-yl]acetamide]",> 99%
16,"CC(=O)Nc1cc(-c2cnc(C)c(NS(=O)(=O)c3cn(C)nc3C(F)(F)F)c2)ccn1 [Compound I-18, N-[6-methyl-5-({[1-methyl-3-(trifluoromethyl)-1H-pyrazol-4-yl]sulfonyl}amino)-3,4′-bipyridin-2′-yl]acetamide]",> 99%
17,"CCc1c(-c2ccnc(NC(C)=O)c2)cnc(Cl)c1NS(=O)(=O)c1ccc(F)cc1F [Compound I-469, N-(6-chloro-5-{[(2,4-difluorophenyl)sulfonyl]amino}-4-ethyl-3,4′-bipyridin-2′-yl)acetamide]",> 99%
18,"Cc1nccc(Nc2cc(-c3cnc(Cl)c(S(=O)(=O)NC4CCC4)c3)ccn2)n1 [Compound I-215, 6-chloro-N-cyclobutyl-2′-((2-methylpyrimidin-4-yl)amino)-[3,4′-bipyridine]-5-sulfonamide]",99%
19,CC(=O)Nc1cc(-c2cnc(Cl)c(C(=O)N3CCC3)c2)c(C)cn1 [Compound I-434],36%

row,Compound,inhibition at 1.11 µM
1,"CC(=O)Nc1cc(-c2cnc(NCC3CC3)c(NCC3CC3)c2)ccn1 [Compound I-65, N-{5,6-bis[(cyclopropylmethyl)amino]-3,4′-bipyridin-2′-yl}acetamide]",93%
2,"CN(C(=O)c1cc(-c2ccnc(Nc3ccncn3)c2)cnc1N)C12CC(C1)C2 [Compound I-303, 6-amino-N-(bicyclo[1.1.1]pent-1-yl)-N-methyl-2′-(pyrimidin-4-ylamino)-3,4′-bipyridine-5-carboxamide]",95%
3,"CC(=O)Nc1cc(-c2cnc(C)c(NS(=O)(=O)c3nccn3C)c2)ccn1 [Compound I-92, N-(6-methyl-5-{[(1-methyl-1H-imidazol-2-yl)sulfonyl]amino}-3,4′-bipyridin-2′-yl)acetamide]",> 99%
4,"CC(=O)Nc1cc(-c2cnc(N)c(S(N)(=O)=O)c2)ccn1 [Compound I-61, N-(6-amino-5-sulfamoyl-3,4′-bipyridin-2′-yl)acetamide]",95%
5,"CC(=O)Nc1cc(-c2cnc(F)c(NS(=O)(=O)c3ccc(F)cc3F)c2)ccn1 [Compound I-164, N-(5-{[(2,4-difluorophenyl)sulfonyl]amino}-6-fluoro-3,4′-bipyridin-2′-yl)acetamide]",> 99%
6,"COc1ncc(-c2ccnc(Nc3ccnc(C)n3)c2)cc1C(=O)N(C)c1ccc(F)cc1F [Compound I-252, N-(2,4-difluorophenyl)-6-methoxy-N-methyl-2′-[(2-methylpyrimidin-4-yl)amino]-3,4′-bipyridine-5-carboxamide]",> 99%
7,"COC(=O)Nc1cc(-c2cnc3[nH]ncc3c2)ccn1 [Compound I-38, Methyl [4-(1H-pyrazolo[3,4-b]pyridin-5-yl)pyridin-2-yl]carbamate]",> 99%
8,"CNc1ncc(-c2ccnc(NC(C)=O)c2)cc1C(=O)NC12CC(C1)C2 [Compound I-160, 2′-acetamido-N-(bicyclo[1.1.1]pent-1-yl)-6-(methylamino)-3,4′-bipyridine-5-carboxamide]",> 99%
9,"CC(=O)Nc1cc(-c2cnc(C)c(NS(=O)(=O)c3ccc(OC(F)(F)F)cc3Cl)c2)ccn1 [Compound I-113, N-[5-({[2-chloro-4-(trifluoromethoxy)phenyl]sulfonyl}amino)-6-methyl-3,4′-bipyridin-2′-yl]acetamide]",> 99%
10,"CCc1ncc(-c2ccnc(NC(C)=O)c2)cc1NS(=O)(=O)c1ccc(F)cc1F [Compound I-201, N-(5-{[(2,4-difluorophenyl)sulfonyl]amino}-6-ethyl-3,4′-bipyridin-2′-yl)acetamide]",> 99%
11,"CC(=O)Nc1cc(-c2cnc(N)c(S(=O)(=O)N(C)C)c2)ccn1 [Compound I-119, N-[6-amino-5-(dimethylsulfamoyl)-3,4′-bipyridin-2′-yl]acetamide]",> 99%
12,"Cc1nccc(Nc2cc(-c3cnc(C)c(OCCN(C)C)c3)ccn2)n1 [Compound I-379, 5-[2-(dimethylamino)ethoxy]-6-methyl-N-(2-methylpyrimidin-4-yl)-3,4′-bipyridin-2′-amine]",47%
13,"Cc1ncc(-c2ccnc(Nc3nc4ccccc4o3)c2)cc1NS(=O)(=O)c1ccc(F)cc1F [Compound I-233, N-[2'-(1,3-benzoxazol-2-ylamino)-6-methyl-3,4′-bipyridin-5-yl]-2,4-difluorobenzene sulfonamide]",96%
14,"Cc1nccc(Nc2cc(-c3cc(NS(=O)(=O)c4ccc(F)cc4F)c4ccnn4c3)ccn2)n1 [Compound I-486, 2,4-difluoro-N-(6-{2-[(2-methylpyrimidin-4-yl)amino]pyridin-4-yl}pyrazolo[1,5-a]pyridin-4-yl)benzenesulfonamide]",84%
15,"Cc1nccc(Nc2cc(-c3cnc(Cl)c(C(=O)N4CCC4)c3)ccn2)n1 [Compound I-232, azetidin-1-yl{6-chloro-2′-[(2-methylpyrimidin-4-yl)amino]-3,4′-bipyridin-5-yl}methanone]",81%
16,"CN(C)c1ncc(-c2ccnc(Nc3ccncn3)c2)cc1C(=O)N(C)C12CC(C1)C2 [Compound I-284, N-(bicyclo[1.1.1]pent-1-yl)-6-(dimethylamino)-N-methyl-2′-(pyrimidin-4-ylamino)-3,4′-bipyridine-5-carboxamide]",> 99%
17,"COc1ccc(S(=O)(=O)Nc2cc(-c3ccnc(NC(C)=O)c3)cnc2C)c(F)c1 [Compound I-163, N-(5-{[(2-fluoro-4-methoxyphenyl)sulfonyl]amino}-6-methyl-3,4′-bipyridin-2′-yl)acetamide]",> 99%
18,"COc1cc(F)ccc1S(=O)(=O)Nc1cc(-c2ccnc(NC(C)=O)c2)cnc1C [Compound I-58, N-(5-{[(4-fluoro-2-methoxyphenyl)sulfonyl]amino}-6-methyl-3,4′-bipyridin-2′-yl)acetamide]",> 99%
19,"COC(=O)Nc1cc(-c2cnc(Cl)c(NS(=O)(=O)c3ccc(F)cc3F)c2C)ccn1 [Compound I-255, methyl (6-chloro-5-{[(2,4-difluorophenyl)sulfonyl]amino}-4-methyl-3,4′-bipyridin-2′-yl)carbamate]",95%
